# In ChEMBL document CHEMBL3259581 (Eur J Med Chem, 2014):
# pIC50: −log10 of the molar value.
# What was measured:
# [1] = target: T1, Prostaglandin G/H synthase 1 (Ovis aries) (UniProt P05979); experiment: Inhibition of ovine COX1 using arachidonic acid as substrate at 30 uM preincubated for 10 mins before substrate addition measured after 5 mins by EIA
# T1 sequence (whole entry): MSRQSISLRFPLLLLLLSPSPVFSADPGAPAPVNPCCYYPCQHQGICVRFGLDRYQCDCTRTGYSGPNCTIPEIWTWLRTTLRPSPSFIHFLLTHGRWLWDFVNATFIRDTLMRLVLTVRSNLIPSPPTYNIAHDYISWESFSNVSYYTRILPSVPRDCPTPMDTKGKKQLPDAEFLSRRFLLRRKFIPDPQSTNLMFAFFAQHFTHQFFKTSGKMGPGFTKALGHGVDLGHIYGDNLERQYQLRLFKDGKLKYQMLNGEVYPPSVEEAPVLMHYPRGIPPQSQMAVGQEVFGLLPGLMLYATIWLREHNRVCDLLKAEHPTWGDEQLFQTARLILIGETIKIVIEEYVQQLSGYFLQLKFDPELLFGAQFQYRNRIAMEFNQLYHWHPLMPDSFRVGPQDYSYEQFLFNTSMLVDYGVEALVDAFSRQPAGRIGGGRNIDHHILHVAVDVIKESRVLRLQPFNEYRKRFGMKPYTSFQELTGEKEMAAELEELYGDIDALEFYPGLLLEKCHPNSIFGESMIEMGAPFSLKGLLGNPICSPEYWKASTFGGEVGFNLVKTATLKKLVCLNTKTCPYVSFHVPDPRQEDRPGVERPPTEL
# [2] = target: T2, Prostaglandin G/H synthase 2 (Ovis aries) (UniProt P79208); conditions: 30 uM
# T2 sequence (whole entry): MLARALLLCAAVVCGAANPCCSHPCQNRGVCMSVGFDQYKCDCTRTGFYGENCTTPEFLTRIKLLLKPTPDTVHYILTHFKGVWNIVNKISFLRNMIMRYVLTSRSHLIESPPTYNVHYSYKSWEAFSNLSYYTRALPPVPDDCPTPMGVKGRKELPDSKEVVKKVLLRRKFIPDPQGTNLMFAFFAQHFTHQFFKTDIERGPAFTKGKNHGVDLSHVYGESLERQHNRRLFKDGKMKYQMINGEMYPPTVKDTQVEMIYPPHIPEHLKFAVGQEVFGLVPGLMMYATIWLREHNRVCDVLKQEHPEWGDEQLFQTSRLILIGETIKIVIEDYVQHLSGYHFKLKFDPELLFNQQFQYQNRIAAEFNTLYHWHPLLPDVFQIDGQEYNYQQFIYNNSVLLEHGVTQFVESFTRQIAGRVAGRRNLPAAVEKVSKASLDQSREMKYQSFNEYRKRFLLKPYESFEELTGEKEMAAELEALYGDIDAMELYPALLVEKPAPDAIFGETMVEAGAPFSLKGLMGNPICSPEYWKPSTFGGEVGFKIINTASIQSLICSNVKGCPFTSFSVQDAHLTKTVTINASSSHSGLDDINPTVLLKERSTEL
# Description: Inhibition of ovine COX2 using arachidonic acid as substrate at 30 uM preincubated for 10 mins before substrate addition measured after 5 mins by EIA
# Rattus norvegicus [3] = experiment: Antiinflammatory activity in Sprague-Dawley rat assessed as inhibition of carrageenan-induced paw edema at 150 umol/kg, po administered 1 hr before carrageenan challenge measured after 3 hrs; type: functional
# Rattus norvegicus [4] = experiment: Antiinflammatory activity in Sprague-Dawley rat assessed as inhibition of carrageenan-induced paw edema at 150 umol/kg, po administered 1 hr before carrageenan challenge measured after 5 hrs; type: functional
# [5] = target: T3, Prostaglandin G/H synthase 1 (Ovis aries, UniProt P05979); experiment: Inhibition of ovine COX1 using arachidonic acid as substrate preincubated for 10 mins before substrate addition measured after 5 mins by EIA
# T3 sequence (P05979 whole entry): T1 sequence (whole entry)
SMILES,inhibition [1] [%],inhibition [2] [%],inhibition in vivo at 150 µmol/kg (Rattus norvegicus [3]) [%],inhibition in vivo at 150 µmol/kg (Rattus norvegicus [4]) [%],pIC50 [5]
CCCCOc1c(C(C)=O)c(C)cc2cccc(O)c12,40.2,37.9,–,–,–
CC(C)Cc1ccc(C(C)C(=O)O)cc1 (stereo not drawn) [IBUPROFEN],–,–,32.3,43.5,–
CC(=O)c1c(C)cc2cccc(OCc3cccc(Cl)c3)c2c1O,67.1,82.1,26.6,37,4.65
C=CCOc1cccc2c1C(=O)c1c(OCC=C)cc(C)cc1C2=O,44.3,81.5,35.6,50.9,< 4.52
COc1c(C(C)=O)c(C)cc2cccc(O)c12,65.5,55.5,–,–,–
Cc1cc(OCc2ccccc2Br)c2c(c1)C(=O)c1cccc(OCc3ccccc3Br)c1C2=O,27.2,62,–,–,–
CC(=O)c1c(C)cc2cccc(OCc3ccccc3)c2c1O,83.4,89.9,30.3,54.2,4.82
Cc1cc(O)c2c(c1)C(=O)c1cccc(O)c1C2=O [CHRYSOPHANOL],29.4,42.1,–,–,4.34
CC(=O)c1c(C)cc2cccc(O)c2c1OCc1ccccc1Br,37.2,67.5,–,–,–
CCOc1cccc2c1C(=O)c1c(OCC)cc(C)cc1C2=O,43.7,55.5,–,–,–
Cc1cc(OCc2cccc(Cl)c2)c2c(c1)C(=O)c1cccc(OCc3cccc(Cl)c3)c1C2=O,25.4,61,–,–,–
CC(=O)c1c(C)cc2cccc(O)c2c1O [NEPODIN],68.2,59.4,–,–,4.56
CCCOc1c(C(C)=O)c(C)cc2cccc(O)c12,51.4,47,–,–,–
CCCOc1cccc2c1C(=O)c1c(OCCC)cc(C)cc1C2=O,39.6,58.7,–,–,–
CCOc1cccc2cc(C)c(C(C)=O)c(O)c12,62.1,54.2,–,–,–
CCOc1c(C(C)=O)c(C)cc2cccc(O)c12,58.4,42.9,–,–,–
CCCCOc1cccc2cc(C)c(C(C)=O)c(O)c12,28.5,31.9,–,–,–
COCOc1cccc2cc(C)c(C(C)=O)c(O)c12,80.6,75,36.4,55.8,4.76
CCCCOc1cccc2c1C(=O)c1c(OCCCC)cc(C)cc1C2=O,26,42,–,–,–
Cc1cc(OCc2ccccc2)c2c(c1)C(=O)c1cccc(OCc3ccccc3)c1C2=O,41.4,76.5,28.2,45.1,< 4.52
CC(=O)c1c(C)cc2cccc(O)c2c1OC(C)C,62.2,54.9,–,–,–
CC(=O)c1c(C)cc2cccc(O)c2c1OCc1ccccc1,60.2,68.2,–,–,–
CC(=O)c1c(C)cc2cccc(O)c2c1OCc1cccc(Cl)c1,34.9,64.9,–,–,–
CCCOc1cccc2cc(C)c(C(C)=O)c(O)c12,53.5,35.4,–,–,–
COCOc1c(C(C)=O)c(C)cc2cccc(O)c12,67.1,61.5,–,–,–
CC(=O)c1c(C)cc2cccc(OCc3ccccc3Br)c2c1O,63.6,83.1,25.5,46.5,4.61
Cc1cc(OCc2ccc(I)cc2)c2c(c1)C(=O)c1cccc(OCc3ccc(I)cc3)c1C2=O,64.2,77.8,36.1,54.6,< 4.52
COc1cccc2cc(C)c(C(C)=O)c(O)c12,69.8,61.7,–,–,–
CC(=O)c1c(C)cc2cccc(OC(C)C)c2c1O,70.9,62.6,–,–,–
COc1cccc2c1C(=O)c1c(OC)cc(C)cc1C2=O,59.2,62.1,–,–,–
